How the values were obtained:
Assay type in all cases: physicochemical
[1] = Polymorphic form conversion: Form I slurried in various solvents, recovered solid analyzed using XRPD
Description: (§1) X-ray powder diffraction patterns for each sample were obtained on a Scintag XDS 2000 or a Scintag X2 θ/θ diffractometer operating with copper radiation at 45 kV and 40 mA using a Kevex Psi Peltier-cooled silicon detector or a Thermo ARL Peltier-cooled solid state detector. Source slits of 2 or 4 mm and detector slits of 0.5 or 0.3 mm were used for data collection. Recrystallized material was gently milled using an agate mortar and pestle for approximately one minute. Samples were placed in a stainless steel or silicon sample holder and leveled using a glass microscope slide. Powder diffraction patterns of the samples were obtained from 2 to 42° 2θ at 1°/minute. Calibration of the X2 diffractometer is verified annually using a silicon powder standard.
Form I of 5-azacytidine was added to various solvents in sufficient quantities to form a slurry, and the slurry allowed to equilibrate for a period of time. The solid material that was present in the slurry was recovered, dried, and analyzed using XRPD (according to the XRPD protocol included in Example 5) with the aim of detecting new polymorphs and pseudopolymorphs during the transition to the dissolved state.

[2] = Polymorphic form conversion of other forms slurried in water, solid analyzed using XRPD; settings: approximate 25 mg/mL, equilibrated 15 minutes
Description: as §1

[3] = Dehydration of Form III by heating; TGA water content and XRPD
Description: as §1
Thermogravimetric Analysis (TGA) measurements for each sample were collected using a Perkin Elmer TGA 7 purged with nitrogen at approximately 20 cc/minute. A 100-mg standard weight and nickel metal were used to verify balance and temperature calibrations, respectively. Samples were heated from 25° C. to 250° C. or 300° C. at 10° C./minute.
5-azacytidine Form III was heated at 105° C. for 4 hours in an attempt to dehydrate the material. […] TGA was used to measure the water content of Form III before and after drying.

Nc1ncn([C@@H]2O[C@H](CO)[C@@H](O)[C@H]2O)c(=O)n1 [Form I, 5-azacytidine]
XRPD Pattern Assignment ([1]; slurry equilibrated 19 hours in 5% Dextrose): Form III | XRPD Pattern Assignment ([1]; slurry equilibrated 19 hours in 5% Tween 80): Form III | XRPD Pattern Assignment ([1]; slurry equilibrated 19 hours in 50/50 EtOH/DI Water): Form III | XRPD Pattern Assignment ([1]; slurry equilibrated 19 hours in Acetone): Form I | XRPD Pattern Assignment ([1]; slurry equilibrated 19 hours in DI Water): Form III | XRPD Pattern Assignment ([1]; slurry equilibrated 19 hours in DMSO): Amorphous | XRPD Pattern Assignment ([1]; slurry equilibrated 19 hours in Ethyl alcohol): Form I | XRPD Pattern Assignment ([1]; slurry equilibrated 19 hours in Methyl ethyl ketone): Form I | XRPD Pattern Assignment ([1]; slurry equilibrated 19 hours in Normal Saline): Form III | XRPD Pattern Assignment ([1]; slurry equilibrated 19 hours in Polyethylene glycol): Amorphous | XRPD Pattern Assignment ([1]; slurry equilibrated 19 hours in Propylene glycol): Amorphous | XRPD Pattern Assignment ([1]; slurry equilibrated 19 hours in Water-saturated Octanol): Form III

Nc1ncn([C@@H]2O[C@H](CO)[C@@H](O)[C@H]2O)c(=O)n1 [Form I/II mixed phase, 5-azacytidine]
form observed by XRPD after slurry in water [2]: Form III

Nc1ncn([C@@H]2O[C@H](CO)[C@@H](O)[C@H]2O)c(=O)n1 [Form III, 5-azacytidine]
amount of moisture (TGA) ([3]; after drying at 105° C. for 4 hours): < 0.1% | XRPD powder pattern after dehydration ([3]; heated at 105° C. for 4 hours): matches that of Form I | amount of moisture (TGA) ([3]; initial, before drying): 6.31%
